{"source": "paper PMC2731040", "about": "(BMC Clinical Pharmacology, 2009)", "key": {"[1]": {"test_system": "nondependent cocaine-experienced subjects", "assay": "Physiologic measures during cocaine challenge sessions", "type": "in vivo, human", "settings": "for Systolic Blood Pressure, Peak change: Mean ± SD, 12 subjects", "protocol": "Heart rate, systolic and diastolic blood pressure were measured using a cardiovascular monitor (Dinamap by Critikon, Vital Signs Monitor 1846 SX). Rate pressure product was calculated as the product of systolic blood pressure and heart rate. Respiration rate was measured by counting the number of inhalations per minute. These vital signs were determined with the patient in a supine position for at least 10 minutes.\n(§1) Heart rate, blood pressure, respiration rate, skin and core temperature were recorded at specific times during the study. During infusions, measures were obtained pre-dose and at 0.17, 0.5, 0.75, 1, 1.5, 2, 2.5, 3, 3.5, 4, 4.25, 4.5, 5, 6, 8, 12, 18, 24, 36, 48, and 72 hours after dosing. The electrocardiogram was monitored continuously during the infusion and for 4 hours after the termination of the intravenous cocaine infusion. EKG tracings were recorded at each data collection point.\nThe time courses of physiologic and subjective data were analyzed by repeated measures analysis of variance (ANOVA). Treatment conditions (Sessions 1 and 2) and observation times (hours post-dose) were considered within-subject factors. Change scores (post-dose minus pre-dose values) were used in most analyses. Raw score were used where indicated. After a significant F test, pairwise comparisons of treatment conditions were performed using the least squares means analysis. Peak effects within a session were determined for each subject and each variable and analyzed using a one-factor repeated measures ANOVA. Effects were considered statistically significant at p = 0.05. Data were adjusted for sphericity using the Huynh-Feldt adjustment factor. Huynh-Feldt-corrected significance values are reported."}, "[2]": {"test_system": "nondependent cocaine-experienced subjects", "assay": "Adverse events and cardiovascular safety monitoring", "type": "in vivo, human", "protocol": "as §1"}, "[3]": {"assay": "Plasma pharmacokinetics of cocaine and benzoylecgonine after IV cocaine-d5 infusion", "settings": "plasma, mean ± SD; for half-life / AUC(0-t) / AUC(0-inf) / clearance / Tmax / Vd / Cmax / k el: human, in vivo; for half-life: (t1/2)z; for clearance: CL; for Vd: Vz; for Cmax: iv, cocaine-d5 IV 0.5 mg/kg over 10 min then 2 mg/kg over 4 h; for k el: λz", "protocol": "In this open-label, unblinded study, a 0.5 mg/kg intravenous loading dose of cocaine-d5 HCl over 10 minutes was followed by a slow 4 hour constant rate cocaine-d5 infusion of 2.0 mg/kg(~175 mg for a 70 kg person). […] When this method of cocaine administration is utilized, a larger dose can be given over a longer period of time and approximates frequently reported patterns of cocaine use. This method also allowed for close monitoring and termination of the infusion if untoward psychiatric or cardiovascular effects occurred.\nFor both cocaine infusions (sessions 1 and 2), plasma samples for cocaine and metabolites (~6 ml) were obtained 5 minutes before and 10 minutes, 0.5, 1, 1.5, 2, 4, 4.25, 4.5, 5, 6, 8, 12, 21, 27, 33, and 45 hours after each cocaine infusion.\nPlasma concentrations of cocaine and benzoylecgonine were measured in our laboratory using a method we developed. The method allows for simultaneous determination of cocaine, benzoylecgonine, and deuterium-labeled analogs [cocaine-d5 and benzoylecgonine-d5 (BE-d5)] by using combined gas chromatography-mass spectrometry (GC-MS). Differently labeled stable isotope analogs were used as internal standards. The calibration curves were from 5 to 2,000 ng/mL for cocaine-d5 and 10 to 2,000 ng/mL for BE-d5. Lower limits of quantitation (LLOQ) were 5 ng/ml (cocaine-d5) and 10 ng/ml (BE-d5) in plasma. Qualitative urine benzoylecgonine was measured by Northwest Toxicology Laboratory, Salt Lake City, Utah, using the Roche Diagnostics Online® immunoassay.\nThe plasma concentration-time profiles for cocaine and benzoylecgonine (BE) were analyzed by non-compartmental methods, utilizing the pharmacokinetic data analysis program WinNonlin Pro, version 3.0 [31].\nThe area under the plasma concentration-time curve was calculated using the linear trapezoidal rule up to the maximum plasma concentration, and thereafter using the logarithmic trapezoidal rule to the last measurable plasma concentration. The remaining area was extrapolated to infinity by dividing the last appropriate plasma concentration by the terminal exponential rate constant.\nMaximum plasma concentration (Cmax) and time of maximum plasma concentration (Tmax) were determined by visual inspection of data. \"Terminal\" exponential half-life [(t1/2)z] was calculated from log-linear regression of \"terminal\" exponential phase data points. Cocaine clearance (CL) and terminal exponential volume of distribution (Vz) were calculated by conventional equations: CL = [Dose/Area under the curve (AUC)0-∞] and Vz = CL/λz, respectively, where λz (\"terminal\" exponential rate constant) = ln2/(t1/2)z. […] Amount of BE in urine samples was calculated by multiplying concentration by volume."}, "[4]": {"settings": "humans; cited from earlier work"}, "dopaminergic tone": {"test_system": "dopaminergic tone", "assay": "Serum prolactin and plasma HVA (surrogate markers of dopaminergic tone)", "type": "in vivo, human", "settings": "both challenge sessions; change within each session not significant", "source_text": "The interactions between MAO-A inhibitors and cocaine administered are largely unexplored. […] Therefore, measurement of dopaminergic and noradrenergic tone may be important in predicting toxic events. We measured dopaminergic tone with the surrogate marker of plasma HVA, the major brain metabolite of dopamine, and serum levels of prolactin, a hormone whose secretion is inhibited by dopamine. The surrogate for noradrenergic tone was urine concentrations of MHPG-S. In order to assess the degree of MAO-A and MAO-B inhibition, we assayed concentrations of a substrate of MAO-B, phenylethylamine (PEA). PEA would be expected to increase with MAO-B inhibition, and concentrations of MHPG-S, which is a metabolite of norepinephrine produced by MAO-A primarily in the brain [20], would be expected to decrease."}, "[5]": {"settings": "Session 1: first cocaine infusion, before selegiline"}, "[6]": {"settings": "Session 2: second cocaine infusion, after one week of selegiline STS"}, "[7]": {"settings": "both cocaine challenge sessions, p < 0.01"}}}
{"smiles": "COC(=O)[C@H]1[C@@H](OC(=O)c2ccccc2)C[C@@H]2CC[C@H]1N2C", "note": "[Cocaine, cocaine]", "values": [{"measurement": "Core Temperature, Peak Time", "setting": "[1]; [5]", "result": "4.5 ± 1.6", "unit": "Hr Postdose"}, {"measurement": "Core Temperature, Peak change", "setting": "[1]; [5]", "result": "0.7 ± 0.2", "unit": "°C"}, {"measurement": "Diastolic Blood Pressure, Peak Time", "setting": "[1]; [5]", "result": "2.8 ± 2.4", "unit": "Hr Postdose"}, {"measurement": "Diastolic Blood Pressure, Peak change", "setting": "[1]; [5]", "result": "10 ± 5", "unit": "mmHg"}, {"measurement": "Heart Rate, Peak Time", "setting": "[1]; [5]", "result": "0.8 ± 0.9", "unit": "Hr Postdose"}, {"measurement": "Heart Rate, Peak change", "setting": "[1]; [5]", "result": "26 ± 10", "unit": "beats/min"}, {"measurement": "Rate Pressure Product, Peak Time", "setting": "[1]; [5]", "result": "1.4 ± 1.5", "unit": "Hr Postdose"}, {"measurement": "Rate Pressure Product, Peak change", "setting": "[1]; [5]", "result": "4224 ± 1638", "unit": "SBP*HR"}, {"measurement": "Respiration Rate, Peak Time", "setting": "[1]; [5]", "result": "0.9 ± 1.3", "unit": "Hr Postdose"}, {"measurement": "Respiration Rate, Peak change", "setting": "[1]; [5]", "result": "3.8 ± 4.0", "unit": "inhal/min"}, {"measurement": "Skin Temperature, Peak Time", "setting": "[1]; [5]", "result": "0.8 ± 0.4", "unit": "Hr Postdose"}, {"measurement": "Skin Temperature, Peak change", "setting": "[1]; [5]", "result": "-5.4 ± 2.7", "unit": "°C"}, {"measurement": "Systolic Blood Pressure, Peak Time", "setting": "[1]; [5]", "result": "2.2 ± 1.9", "unit": "Hr Postdose"}, {"measurement": "Systolic Blood Pressure, Peak change", "setting": "[1]; Session 1: first cocaine infusion, day 1, before selegiline", "result": "17 ± 8", "unit": "mmHg"}, {"measurement": "Core Temperature, Peak Time", "setting": "[1]; [6]", "result": "4.2 ± 1.9", "unit": "Hr Postdose"}, {"measurement": "Core Temperature, Peak change", "setting": "[1]; [6]", "result": "0.7 ± 0.5", "unit": "°C"}, {"measurement": "Diastolic Blood Pressure, Peak Time", "setting": "[1]; [6]", "result": "2 ± 2", "unit": "Hr Postdose"}, {"measurement": "Diastolic Blood Pressure, Peak change", "setting": "[1]; [6]", "result": "12 ± 6", "unit": "mmHg"}, {"measurement": "Heart Rate, Peak Time", "setting": "[1]; [6]", "result": "0.9 ± 1.7", "unit": "Hr Postdose"}, {"measurement": "Heart Rate, Peak change", "setting": "[1]; [6]", "result": "27 ± 12", "unit": "beats/min"}, {"measurement": "Rate Pressure Product, Peak Time", "setting": "[1]; [6]", "result": "0.9 ± 1.6", "unit": "Hr Postdose"}, {"measurement": "Rate Pressure Product, Peak change", "setting": "[1]; [6]", "result": "4437 ± 2333", "unit": "SBP*HR"}, {"measurement": "Respiration Rate, Peak Time", "setting": "[1]; [6]", "result": "0.4 ± 0.3", "unit": "Hr Postdose"}, {"measurement": "Respiration Rate, Peak change", "setting": "[1]; [6]", "result": "3.8 ± 3.6", "unit": "inhal/min"}, {"measurement": "Skin Temperature, Peak Time", "setting": "[1]; [6]", "result": "1.0 ± 1.2", "unit": "Hr Postdose"}, {"measurement": "Skin Temperature, Peak change", "setting": "[1]; [6]", "result": "-5 ± 3.2", "unit": "°C"}, {"measurement": "Systolic Blood Pressure, Peak Time", "setting": "[1]; [6]", "result": "1.9 ± 1.7", "unit": "Hr Postdose"}, {"measurement": "Systolic Blood Pressure, Peak change", "setting": "[1]; Session 2: second cocaine infusion, day 11, after one week of selegiline STS patch 6 mg/24 hours", "result": "17 ± 9", "unit": "mmHg"}, {"measurement": "Skin temperature compared to baseline", "setting": "[1]; [7]", "result": "decreased significantly"}, {"measurement": "Systolic blood pressure, heart rate, and rate pressure product compared to baseline", "setting": "[1]; [7]", "result": "increased significantly"}, {"measurement": "Diastolic blood pressure, respiration rate, and core temperature", "setting": "[1]; cocaine either alone or with selegiline", "result": "did not alter"}, {"measurement": "Adverse events", "setting": "[2]; STS 6 mg/24 hours, cocaine-d5 IV 2.5 mg/kg over 4 hours", "result": "One subject vomited"}, {"measurement": "Adverse effects of cocaine following selegiline administration", "setting": "[2]; cocaine infusion after one week of STS", "result": "No significant adverse effects"}, {"measurement": "AUCext", "setting": "[3]; Pre Selegiline (session 1)", "result": "1.40 ± 1.03", "unit": "%"}, {"measurement": "AUCext", "setting": "[3]; With Selegiline (session 2)", "result": "1.78 ± 1.87", "unit": "%"}, {"measurement": "half-life", "setting": "[3]; Pre Selegiline (session 1)", "result": "103 ± 48.6", "unit": "min"}, {"measurement": "half-life", "setting": "[3]; With Selegiline (session 2)", "result": "94.2 ± 18", "unit": "min"}, {"measurement": "AUC(0-t)", "setting": "[3]; Pre Selegiline (session 1)", "result": "2640 ± 55.6", "unit": "ng·h/mL"}, {"measurement": "AUC(0-t)", "setting": "[3]; With Selegiline (session 2)", "result": "2360 ± 499", "unit": "ng·h/mL"}, {"measurement": "AUC(0-inf)", "setting": "[3]; Pre Selegiline (session 1)", "result": "2680 ± 1470", "unit": "ng·h/mL"}, {"measurement": "AUC(0-inf)", "setting": "[3]; With Selegiline (session 2)", "result": "2400 ± 487", "unit": "ng·h/mL"}, {"measurement": "clearance", "setting": "[3]; Pre Selegiline (session 1)", "result": "18.3 ± 6.17", "unit": "mL/min/kg"}, {"measurement": "clearance", "setting": "[3]; With Selegiline (session 2)", "result": "18 ± 3.34", "unit": "mL/min/kg"}, {"measurement": "Tmax", "setting": "[3]; Pre Selegiline (session 1)", "result": "2.66 ± 1.74", "unit": "h"}, {"measurement": "Tmax", "setting": "[3]; With Selegiline (session 2)", "result": "2.27 ± 2.04", "unit": "h"}, {"measurement": "Vd", "setting": "[3]; Pre Selegiline (session 1)", "result": "2.49 ± 0.88", "unit": "L/kg"}, {"measurement": "Vd", "setting": "[3]; With Selegiline (session 2)", "result": "2.44 ± 0.64", "unit": "L/kg"}, {"measurement": "Cmax", "setting": "[3]; Pre Selegiline (session 1)", "result": "721 ± 773", "unit": "ng/mL"}, {"measurement": "Cmax", "setting": "[3]; With Selegiline (session 2, after one week STS 6 mg/24 hours)", "result": "640 ± 332", "unit": "ng/mL"}, {"measurement": "k el", "setting": "[3]; Pre Selegiline (session 1)", "result": 0.000126, "unit": "s⁻¹"}, {"measurement": "k el", "setting": "[3]; With Selegiline (session 2)", "result": 0.000127, "unit": "s⁻¹"}, {"measurement": "half life of acute pharmacokinetic and dynamic effects", "setting": "[4]", "result": "about 1 hour"}, {"measurement": "Serum prolactin levels after cocaine, change within session", "setting": "dopaminergic tone", "result": "numerically decreased"}]}
